“And” between values parts separate entries of the source, which are not always exact repeats. Identical values can stand only once. After the bases stand the sugars from the 5' end (letter, count) and the backbone: PS all phosphorothioate, else s phosphorothioate and o phosphodiester by linkage. Methylation of C is not given here. e = 2'-O-(2-methoxyethyl) (MOE); k = constrained ethyl (cEt); d = 2'-deoxy (DNA)

This data set has as its target IRF4. Conditions: ASO.

Consider GGCAACAGTTCAAGTA (sugars k3 d10 k3, PS), for which the target mRNA inhibition (SK-MEL-28, 4 µM) came to 57%. The same measure, in the same setting: next, CATAGCATTATCTACC (sugars k3 d10 k3, PS): 43%; CCACGCGCGGAGGACC (sugars k3 d10 k3, PS): 19%; AATGGAGCATCCGCTT (sugars k3 d10 k3, PS): -7%. On to TTCCAACCTTTATGAT (sugars k3 d10 k3, PS), for which the target mRNA inhibition (SK-MEL-28, 4 µM) amounted to 7%. Same read-out and setting: then GTATGTAGCAATGTGA (sugars k3 d10 k3, PS), with 21%; and GTCTACAGAACACAAG (sugars k3 d10 k3, PS), with 24%; and AAACAGAGACGCGGTG (sugars k3 d10 k3, PS), with 18%.

Regarding AAGCTTAGTTATCTGG (sugars k3 d10 k3, PS), the target mRNA inhibition was -13% (MM.1R, 0.0625 µM); -10% (MM.1R, 0.25 µM); 35% and 13% (MM.1R, 1 µM); 45% (MM.1R, 4 µM).

Regarding “TGTGATAGCTGAGCTG (sugars kdddddddddkekeke, PS)”, the target mRNA inhibition (MM.1R, 1 µM) is 18%. With AACCGCTGAACTGAAA (sugars k3 d10 k3, PS), the target mRNA inhibition (SK-MEL-28, 4 µM) turned out to be 13%.

On to “CTCTATAGTGTTCCAG (sugars kddddddddddkekek, PS)”, for which the target mRNA inhibition (MM.1R, 1 µM) amounted to 24%. Take “GTGATGTCAGGTTTTC (sugars e1 k2 d9 k2 e2, PS)”: the target mRNA inhibition (MM.1R, 1 µM) was found to be 48%. As for GAGTAAACTTGGCTGT (sugars k3 d10 k3, PS), the target mRNA inhibition (SK-MEL-28, 4 µM) came to 38%. Consider TCAGATTTACACCGTT (sugars k3 d10 k3, PS), for which the target mRNA inhibition (MM.1R, 1 µM) was 14%. As for GAAGGATGGGACCGCC (sugars k3 d10 k3, PS), where the note is “SK-MEL-28, 4 µM”, the target mRNA inhibition is 41%. As to ATACATTGAGGCATAC (sugars k3 d10 k3, PS), where the note is “MM.1R, 1 µM”, the target mRNA inhibition was 2%. For the sequence TTGTGGACACTTTTAG (sugars k3 d10 k3, PS), the target mRNA inhibition (SK-MEL-28, 4 µM) was determined as 49%. In the case of AACTAATGTCCCCAGG (sugars k3 d10 k3, PS), for the setting “MM.1R, 1 µM”, the target mRNA inhibition was -12%. On to “GGAAGTTTACACTGGA (sugars e1 k2 d9 k2 e2, PS)”, for which the target mRNA inhibition is, setting by setting: (H929, 0.04 µM) 38% and 36%; (KMS11, 0.2 µM) 75% and 80%; (MM.1R, 0.074 µM) 13%; (MM.1R, 0.222 µM) 35%; (MM.1R, 0.666 µM) 66%; (MM.1R, 1 µM) 55%. For the same sequence, for the setting “MM.1R, 2 µM”, the target mRNA inhibition is 87%.

Take “AAGCTTGATAAAGGCT (sugars kddddddddddkekek, PS)”: the target mRNA inhibition (MM.1R, 1 µM) is 3%.

Consider TTTTATATATGACGAC (sugars k3 d10 k3, PS), for which the target mRNA inhibition (SK-MEL-28, 4 µM) was 34%. On the same count and under the same terms, next, CATAATCCAGTATCTG (sugars k3 d10 k3, PS): 18%. Consider AGCAAGTCGGTCCACA (sugars k3 d10 k3, PS), for which the target mRNA inhibition (SK-MEL-28, 4 µM) is 54%. Take TGTGAACCTGCTAAAG (sugars k3 d10 k3, PS): the target mRNA inhibition (MM.1R, 1 µM) is -10%. The same measure, in the same setting: next, “ATGTGTATTACTCTTA (sugars kddddddddddkekek, PS)”: 17% and 4%; “AGTTGTAAATGAGTCG (sugars e1 k2 d9 k2 e2, PS)”: 49%.

As to AATACGACAACTTTCC (sugars k3 d10 k3, PS), the target mRNA inhibition (SK-MEL-28, 4 µM) came to 50%. Take “GTAGTATGAGAAACGG (sugars k2 d9 e3 k2, PS)”: the target mRNA inhibition (MM.1R, 1 µM) came out at 51%. With TCTGATCCGGACTCTC (sugars k3 d10 k3, PS), the target mRNA inhibition (SK-MEL-28, 4 µM) came out at 41%. For the sequence “AAGTGTCTAAAGTCCC (sugars kkdddddddddkdkdk, PS)”, the target mRNA inhibition (MM.1R, 1 µM) was 13% and 21%. On the same count and under the same terms, next, “GAAGCATTTTATCATC (sugars kddddddddddkekek, PS)”: -12%. As for GAATGAGGAAGCCGTT (sugars k3 d10 k3, PS), under “SK-MEL-28, 4 µM”, the target mRNA inhibition is 39%.

Consider TGGACACTTTTAGAGA (sugars k3 d10 k3, PS), for which the target mRNA inhibition (SK-MEL-28, 4 µM) was 72%. Same read-out and setting: next, CTGGCACCAAAAGTAC (sugars k3 d10 k3, PS): 18%. Regarding “GACAGTGACTTGCATC (sugars kkddddddddddkeke, PS)”, the target mRNA inhibition (MM.1R, 1 µM) turned out to be 25%. In the case of ACCAAGCTGGGTTTGC (sugars k3 d10 k3, PS), the target mRNA inhibition (SK-MEL-28, 4 µM) was 53%. Still for that read-out and setting: next, AACCGCTGGCAGGTGG (sugars k3 d10 k3, PS): 40%; GGATTTCCGGGTGTGG (sugars k3 d10 k3, PS): 61%; CTTTTTAGTTCATACC (sugars k3 d10 k3, PS): 37%. With CTCCACAGCAAGGCCT (sugars k3 d10 k3, PS), under “SK-MEL-28, 4 µM”, the target mRNA inhibition was 51%. Regarding ACATTAAAGGGTAAGC (sugars k3 d10 k3, PS), the target mRNA inhibition (MM.1R, 1 µM) was -23%. Take “CTATAGTGTTCCAGGA (sugars kddddddddddkekek, PS)”: the target mRNA inhibition (MM.1R, 1 µM) stood at 34%. For the sequence “TAGTATGAGAAACGGC (sugars kkddddddddddkeke, PS)”, the target mRNA inhibition (MM.1R, 1 µM) was determined as 46%. Turning to TAAATTCTAGTTTGCC (sugars k3 d10 k3, PS), the target mRNA inhibition (SK-MEL-28, 4 µM) was 68%. On to CGACAGCTAAAGAACA (sugars k3 d10 k3, PS), for which the target mRNA inhibition (SK-MEL-28, 4 µM) came out at 37%.

On to CTGATGTGTTCTGGTA (sugars k3 d10 k3, PS), for which the target mRNA inhibition reads like this: (MM.1R, 0.0625 µM) 14% and 36%; (MM.1R, 0.25 µM) 27% and 41%; (MM.1R, 1 µM) 45% and 53%; (MM.1R, 4 µM) 69% and 70%. Consider TGTCAATACTGAAAGG (sugars k3 d10 k3, PS), for which the target mRNA inhibition (SK-MEL-28, 4 µM) worked out at 36%. Consider TGATGGAGAAACGAGC (sugars k3 d10 k3, PS), for which the target mRNA inhibition (MM.1R, 1 µM) was -2%. On the same count and under the same terms, then “CTCTATAGTGTTCCAG (sugars kkdddddddddekeke, PS)”, with 43%; and GGCTCTTGATGTGAAC (sugars k3 d10 k3, PS), with -12%.

Take TAGACTGACAGCCGAA (sugars k3 d10 k3, PS): the target mRNA inhibition (MM.1R, 1 µM) stood at 3%. For the sequence AGGAACTAGTCGACAG (sugars k3 d10 k3, PS), the target mRNA inhibition (SK-MEL-28, 4 µM) is 40%. On to “ACCTCAGTTTGTGAAG (sugars k3 d9 k3 e1, PS)”, for which the target mRNA inhibition (MM.1R, 1 µM) stood at 10%. As for GTTGAACCCATCTTGA (sugars k3 d10 k3, PS), the target mRNA inhibition (SK-MEL-28, 4 µM) worked out at 16%. In the case of “ACGGAAGTTTACACTG (sugars e1 k2 d9 k2 e2, PS)”, the target mRNA inhibition (MM.1R, 1 µM) is 17%.

GACAGCCGAAGCATTT (sugars k3 d10 k3, PS): the target mRNA inhibition (MM.1R, 1 µM) came to 6%. As to GACCACGAGGCCCCGG (sugars k3 d10 k3, PS), the target mRNA inhibition (SK-MEL-28, 4 µM) worked out at 31%.

Take CTTTAACAAGTCCTCA (sugars k3 d10 k3, PS): the target mRNA inhibition (SK-MEL-28, 4 µM) was found to be 52%. In the case of “CAAGTGTCTAAAGTCC (sugars kkdddddddddkekek, PS)”, the target mRNA inhibition (MM.1R, 1 µM) was 15% and 6%.

For the sequence GGTCTGGAAACTCCTC (sugars k3 d10 k3, PS), the target mRNA inhibition reads like this: (MM.1R, 0.074 µM) 13%; (MM.1R, 0.222 µM) 14%; (MM.1R, 0.666 µM) 12%; (MM.1R, 2 µM) 17%; (SK-MEL-28, 0.185 µM) 1%; (SK-MEL-28, 4 µM) 52%. Further, the target mRNA inhibition (SK-MEL-28, 5 µM) came out at 63% and the target mRNA inhibition (SK-MEL-28, 15 µM) stood at 86%. For the sequence GGGAATCCCTTATTAG (sugars k3 d10 k3, PS), the target mRNA inhibition (MM.1R, 1 µM) amounted to 0%. Turning to AGTACAAACTAAATTC (sugars k3 d10 k3, PS), for the setting “SK-MEL-28, 4 µM”, the target mRNA inhibition worked out at 24%.

On to GAGGGAGCTCATTTTG (sugars k3 d10 k3, PS), for which the target mRNA inhibition (SK-MEL-28, 4 µM) was found to be 24%. Same read-out and setting: then CAAAATGGTGTGTAAG (sugars k3 d10 k3, PS), with 25%; and ACCCACATAACTCAGG (sugars k3 d10 k3, PS), with 31%; and AGCTAATGAGAGCTTC (sugars k3 d10 k3, PS), with 17%. AGGAATGAGCACTCTT (sugars k3 d10 k3, PS): the target mRNA inhibition (MM.1R, 1 µM) was 7%. Take ACTTAAGCAAGTGGAG (sugars k3 d10 k3, PS): the target mRNA inhibition (SK-MEL-28, 4 µM) was 63%. Still for that read-out and setting: next, ACTAGCAGGGCACGCT (sugars k3 d10 k3, PS): 38%.

For TAGGAGTGTAACTGAG (sugars k3 d10 k3, PS), the target mRNA inhibition (SK-MEL-28, 4 µM) came to 37%. On to “AGCTTGATAAAGGCTG (sugars kkkddddddddkekek, PS)”, for which, under “MM.1R, 1 µM”, the target mRNA inhibition is -8%.

As to CTGGCATTGAGACGGG (sugars k3 d10 k3, PS), where the note is “SK-MEL-28, 4 µM”, the target mRNA inhibition stood at 61%. On the same count and under the same terms, next, CTTTTACCCACCAAAG (sugars k3 d10 k3, PS): 18%; ATACATTTCTTTTACG (sugars k3 d10 k3, PS): 22%.

TAGTTTAAGGGTTACG (sugars k3 d10 k3, PS): where the note is “SK-MEL-28, 4 µM”, the target mRNA inhibition is 49%. As for “CAGTGATGTCAGGTTT (sugars kkdddddddddekeke, PS)”, for the setting “MM.1R, 1 µM”, the target mRNA inhibition was 47%. Take ACATTACTAGATTGTA (sugars k3 d10 k3, PS): the target mRNA inhibition (SK-MEL-28, 4 µM) came out at 41%.

In the case of CTCTTGTGAGGCAAAG (sugars k3 d10 k3, PS), where the note is “SK-MEL-28, 4 µM”, the target mRNA inhibition came out at 48%.

For GCCGCTGTCGATCTGG (sugars k4 d8 k4, PS), where the note is “SK-MEL-28, 4 µM”, the target mRNA inhibition came out at 15%. On the same count and under the same terms, next, TCTTACTCCGCTGAGT (sugars k3 d10 k3, PS): 35%.

In the case of GTTCCAGGAGATATTA (sugars k3 d10 k3, PS), for the setting “SK-MEL-28, 4 µM”, the target mRNA inhibition worked out at 52%.

For CAAAGCGCACCGCAGG (sugars k3 d10 k3, PS), the target mRNA inhibition (MM.1R, 1 µM) is -4%. Still for that read-out and setting: then CTACACAGGCTAATCA (sugars k3 d10 k3, PS), with 4%. Consider TCCCCGTATCAAAAAA (sugars k3 d10 k3, PS), for which the target mRNA inhibition (SK-MEL-28, 4 µM) is -12%. Same read-out and setting: then AAGTGGACCCCATTGC (sugars k3 d10 k3, PS), with 31%.

Values taken from the OligoGym collection.
